From ChEMBL document CHEMBL1129856, “Novel optimised quinuclidine squalene synthase inhibitors” (Bioorg Med Chem Lett, 1997)

Experiments:
[1] = Plasma half life of hydrolysis of the compound; type: ADME, organism-based; details: rat
Rattus norvegicus [2] = species on record: Rattus norvegicus; assay: Tested for inhibition of cholesterol biosynthesis in rat; type: functional
Squalene synthase [3] = molecular target: T1, Squalene synthase (Rattus norvegicus, UniProt Q02769); assay: Tested for its inhibitory activity against rat microsomal […] squalene synthase (SQS)
T1 sequence (Q02769 whole entry): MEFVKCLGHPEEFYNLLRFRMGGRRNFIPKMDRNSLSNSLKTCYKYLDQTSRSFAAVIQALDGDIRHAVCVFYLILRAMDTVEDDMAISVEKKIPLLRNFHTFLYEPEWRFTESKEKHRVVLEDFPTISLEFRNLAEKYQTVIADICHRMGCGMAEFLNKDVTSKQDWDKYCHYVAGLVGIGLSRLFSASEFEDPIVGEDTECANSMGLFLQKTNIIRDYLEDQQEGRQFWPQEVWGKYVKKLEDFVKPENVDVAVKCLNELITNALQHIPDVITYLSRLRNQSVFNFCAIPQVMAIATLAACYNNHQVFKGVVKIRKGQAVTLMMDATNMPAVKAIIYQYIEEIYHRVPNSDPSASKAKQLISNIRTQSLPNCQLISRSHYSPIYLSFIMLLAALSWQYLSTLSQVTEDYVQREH

Rattus norvegicus [4] = species on record: Rattus norvegicus; assay: Tested for inhibition against rat cholesterol biosynthesis; type: functional
Squalene synthase [5] = molecular target: T2, Squalene synthase (Homo sapiens, UniProt P37268); assay: Tested for its inhibitory activity against human microsomal […] squalene synthase (SQS)
T2 sequence (P37268 whole entry): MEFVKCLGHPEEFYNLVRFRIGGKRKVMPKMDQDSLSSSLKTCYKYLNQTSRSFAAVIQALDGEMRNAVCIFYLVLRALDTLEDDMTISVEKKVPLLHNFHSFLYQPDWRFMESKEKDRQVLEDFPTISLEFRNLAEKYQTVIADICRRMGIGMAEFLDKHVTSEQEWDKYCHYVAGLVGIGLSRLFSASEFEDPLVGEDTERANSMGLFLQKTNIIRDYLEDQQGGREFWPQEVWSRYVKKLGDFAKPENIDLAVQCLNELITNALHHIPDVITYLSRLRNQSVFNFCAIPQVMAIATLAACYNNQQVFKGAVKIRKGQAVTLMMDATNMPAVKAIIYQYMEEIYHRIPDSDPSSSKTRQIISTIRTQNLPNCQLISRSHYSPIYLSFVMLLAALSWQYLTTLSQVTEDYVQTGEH

| Structure (SMILES) | Ki (Squalene synthase [3]) | ED50 (Rattus norvegicus [4]) | other results |
| --- | --- | --- | --- |
| C=CCc1cc(CCC(=O)OCc2ccccc2)ccc1C#CC1(O)CN2CCC1CC2 (stereo not drawn) | – | – | half-life [1]: ≤ 5 min; ED50 (Rattus norvegicus [2]): 1.6 mg/kg |
| C=CCc1cc(CC(=O)OCC)ccc1C#CC1(O)CN2CCC1CC2 (stereo not drawn) | 100 nM | – | – |
| C=CCc1cc(CCCCCC(=O)OC)ccc1C#CC1(O)CN2CCC1CC2 (stereo not drawn) | 20 nM | 1.3 mg/kg | – |
| C=CCc1cc(CCC(=O)OCCCCCC)ccc1C#CC1(O)CN2CCC1CC2 (stereo not drawn) | – | – | half-life [1]: ≤ 5 min; ED50 (Rattus norvegicus [2]): 1.5 mg/kg |
| C=CCc1cc(CCC(N)=O)ccc1C#CC1(O)CN2CCC1CC2 (stereo not drawn) | > 250 nM | – | – |
| C=CCc1cc(CCC(=O)N(CC)CC)ccc1C#CC1(O)CN2CCC1CC2 (stereo not drawn) | > 250 nM | – | – |
| C=CCc1cc(CCC#N)ccc1C#CC1(O)CN2CCC1CC2 (stereo not drawn) | > 250 nM | – | – |
| C=CCc1cc(CCC(=O)OCC)ccc1C#CC1(O)CN2CCC1CC2 (stereo not drawn) | 6 nM | 1.3 mg/kg | half-life [1]: ≤ 5 min; Ki (Squalene synthase [5]): 43 nM |
| C=CCc1cc(CCC(=O)OC)ccc1C#CC1(O)CN2CCC1CC2 (stereo not drawn) | 20 nM | 1.3 mg/kg | – |
| C=CCc1cc(CCCC(=O)OC)ccc1C#CC1(O)CN2CCC1CC2 (stereo not drawn) | 2 nM | 1.3 mg/kg | – |
| C=CCc1cc(CCC(=O)NC)ccc1C#CC1(O)CN2CCC1CC2 (stereo not drawn) | > 250 nM | – | – |
| C=CCc1cc(CCCCC(=O)OC)ccc1C#CC1(O)CN2CCC1CC2 (stereo not drawn) | 8 nM | 1.3 mg/kg | – |
| C=CCc1cc(CCC(=O)O)ccc1C#CC1(O)CN2CCC1CC2.Cl (stereo not drawn) | – | – | ED50 (Rattus norvegicus [2]): 1.8 mg/kg |
| C=CCc1cc(CCC(=O)O)ccc1C#C[C@@]1(O)CN2CCC1CC2.Cl (single isomer, unassigned) | – | – | ED50 (Rattus norvegicus [2]): 0.9 mg/kg |
